This assay deals with PAR4 (Homo sapiens (Human), UniProt Q96RI0). The assay can be described thus: FLIPR assay in PAR4-expressing HEK293 cells (PAR4 antagonist activity). It counts as cell-based. Particulars: inhibition of H-Ala-Phe(4-F)-Pro-Gly-Trp-Leu-Val-Lys-Asn-Gly-NH2-induced intracellular calcium mobilization. The text has this:
The FLIPR assay is an exemplary in vitro assay for measuring the activity of the PAR4 antagonists of the present invention. In this assay, intracellular calcium mobilization is induced in PAR4 expressing cells by a PAR4 agonist and calcium mobilization is monitored. See, e.g., Example A.
HEK293 cells stably expressing PAR4 were generated by a standard method of transfection of human PAR4 (F2R23) cDNA expression vector and selected based on PAR4 protein expression or mRNA expression. […] These cells also express endogenous PAR1 and can elicit calcium signal upon stimulation with PAR1 agonist peptide. Therefore, the same cells were also used to determine selectivity against PAR1 and agonist activity for both receptors. Cells from HEK293 PAR4 Clone 1.2A (BMS Arctic ID 383940) were propagated and used for calcium mobilization studies.
FLIPR-based calcium mobilization assay in HEK293 cells was used to measure PAR4 antagonism, agonism, and selectivity against PAR1. The activity of the PAR4 antagonists of the present invention were tested in PAR4 expressing cells by monitoring H-Ala-Phe(4-F)-[…]NH2-induced intracellular calcium mobilization. Counter screens for agonist activity and PAR1 antagonist activity were also performed. Briefly, PAR1/PAR4-expressing HEK293 cells were grown in DMEM (Life Technology, Grand Island, N.Y.) containing 10% heat-inactivated FBS, 1% Penicillin-Streptomycin, 10 μg/mL blasticidin, and 100 μg/mL Zeocin at 37° C. with 5% CO2. Cells were plated overnight prior to the experiment in a black 384-well Purecoat Amine clear bottom plate (Becton Dickinson Biosciences, San Jose, Calif.) at 10,000 cells/well in 30 μL growth medium and incubated in a humidified chamber at 37° C. with 5% CO2 overnight. Prior to compound addition, the cell medium was replaced with […] of 1× calcium and magnesium-containing Hank's Balanced Saline Solution (HBSS) (with 20 mM HEPES) and 1:1000 diluted fluorescent calcium indicator (Codex Biosolutions, Gaithersburg, Md.). After a 30 minute incubation period at 37° C. and a further 30 minute incubation and equilibration period at room temperature, 20 μL test compound (diluted in 1× HBSS buffer) was added at various concentrations at 0.17% dimethyl sulfoxide (DMSO) final concentration. Changes in fluorescence intensity were measured using a Functional Drug Screening System (FDSS, Hamamatsu, Japan) to determine agonist activities. The cells were then incubated for 30 minutes at room temperature followed by addition of 20 μL of agonist peptide for antagonist activity measurement. […] Compound potency was derived from 11-point concentration-response curves.
The following Table sets out results obtained employing various compounds of the invention tested in the FLIPR assay. As indicated above, the FLIPR assay, an in vitro assay, measures the PAR4 antagonist activity of compounds tested as described in Example A.
A general note: A change in cytosolic calcium serves as a functional read-out for many receptors and channels.

Sequence of PAR4 (Q96RI0 18-385): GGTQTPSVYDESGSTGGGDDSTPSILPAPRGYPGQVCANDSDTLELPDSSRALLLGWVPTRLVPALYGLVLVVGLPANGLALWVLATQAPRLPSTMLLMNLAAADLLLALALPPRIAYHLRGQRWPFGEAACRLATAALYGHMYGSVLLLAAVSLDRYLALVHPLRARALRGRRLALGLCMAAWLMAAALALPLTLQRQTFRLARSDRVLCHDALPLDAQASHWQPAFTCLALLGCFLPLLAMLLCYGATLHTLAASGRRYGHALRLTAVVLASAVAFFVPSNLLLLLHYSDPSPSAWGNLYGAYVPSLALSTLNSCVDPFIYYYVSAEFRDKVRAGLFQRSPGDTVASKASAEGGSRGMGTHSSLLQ

As a reminder, the EC50 is the concentration needed to bring the measured effect to its halfway point. Regarding `COc1cc(OCc2cccc(NC(=O)c3cc(C(F)(F)F)ccc3C(F)(F)F)c2)c2cc(-c3cn4nc(OC)sc4n3)oc2c1` [Example 9], the EC50 is 2 nM.
Regarding `COc1cc(OCc2cccc(NC(=O)c3cccc(Cl)c3)c2)c2cc(-c3cn4nc(OC)sc4n3)oc2c1` [Example 11], the EC50 was 1.7 nM.
`COc1cc(OCc2cccc3c2CCN3C(=O)c2cc(OC(F)F)cc(C(F)(F)F)c2)c2cc(-c3cn4nc(OC)sc4n3)oc2c1` [Example 130]: the EC50 stood at 5.2 nM.
Consider `COc1cc(OCc2cccc(NC(=O)c3ccc(F)c(F)c3)c2)c2cc(-c3cn4nc(OC)sc4n3)oc2c1` [Example 166], for which the EC50 came to 2.3 nM.
Then `COc1cc(OCc2cccc(NC(=O)c3ccc([N+](=O)[O-])cc3)c2)c2cc(-c3cn4nc(OC)sc4n3)oc2c1` [Example 33], with 1.8 nM.
Turning to `COc1cc(OCc2cccc(NC(=O)c3cccc(F)c3)c2)c2cc(-c3cn4nc(OC)sc4n3)oc2c1` [Example 28], the EC50 was found to be 2 nM.
In the case of `COc1cc(OCc2cccc(NC(=O)C(C)C)c2)c2cc(-c3cn4nc(OC)sc4n3)oc2c1` [Example 136], the EC50 is 3.9 nM.
Consider `COc1cc(OCc2cccc(NC(=O)c3ccnc(O)c3)c2)c2cc(-c3cn4nc(OC)sc4n3)oc2c1` [Example 56], for which the EC50 was 5.5 nM.
Then `COc1cc(OCc2cccc3c2CCN3C(=O)c2cccc(F)c2)c2cc(-c3cn4nc(OC)sc4n3)oc2c1` [Example 121], with 140 nM; and `COc1cc(OCc2cccc(NC(=O)Cc3cc(C)no3)c2)c2cc(-c3cn4nc(OC)sc4n3)oc2c1` [Example 47], with 6.9 nM.
As to `COc1cc(OCc2ccc3c(c2)N(C(=O)c2ccccc2C)CC3)c2cc(-c3cn4nc(OC)sc4n3)oc2c1` [Example 101], the EC50 was 3.1 nM.
With `COc1cc(OCc2cccc3c2CCN3C(=O)c2ccc(OC)nc2)c2cc(-c3cn4nc(OC)sc4n3)oc2c1` [Example 127], the EC50 turned out to be 2.9 nM.
To `COc1cc(OCc2cccc(NC(=O)c3ccc(F)cc3)c2)c2cc(-c3cn4nc(OC)sc4n3)oc2c1` [Example 2, 4-Fluoro-N-(3-(((6-methoxy-2-(2-methoxyimidazo[2,1-b][1,3,4]thiadiazol-6-yl)benzofuran-4-yl)oxy)methyl)phenyl)benzamide] belongs 1 nM; to `COc1cc(OCc2cccc(NC(=O)c3csc(-c4cccc(C(F)(F)F)c4)n3)c2)c2cc(-c3cn4nc(OC)sc4n3)oc2c1` [Example 80], 94 nM.
As to `COc1cc(OCc2cccc(NC(=O)c3ccccc3C(F)(F)F)c2)c2cc(-c3cn4nc(OC)sc4n3)oc2c1` [Example 13], the EC50 came to 1.9 nM.
As to `COc1cc(OCc2cccc(N(C)C(=O)c3cncnc3)c2)c2cc(-c3cn4nc(OC)sc4n3)oc2c1` [Example 92], the EC50 is 3.5 nM.
As to `COc1ccc(C(=O)Nc2cccc(COc3cc(OC)cc4oc(-c5cn6nc(OC)sc6n5)cc34)c2)cc1` [Example 18], the EC50 was determined as 0.91 nM.
To `COc1cc(OCc2cccc(N(C)C(=O)c3ccccc3C)c2)c2cc(-c3cn4nc(OC)sc4n3)oc2c1` [Example 84] belongs 2.5 nM.
In the case of `COc1cc(OCc2cccc3c2CCN3C(C)=O)c2cc(-c3cn4nc(OC)sc4n3)oc2c1` [Example 117], the 50% effective concentration (EC50) is more than 3300 nM.
Then `COc1cc(OCc2cccc(NC(=O)c3ccc(F)cc3F)c2)c2cc(-c3cn4nc(OC)sc4n3)oc2c1` [Example 152], with 1.3 nM; and `COc1cc(OCc2cccc(NC(=O)c3ccccn3)c2)c2cc(-c3cn4nc(OC)sc4n3)oc2c1` [Example 139], with 2.7 nM; and `COc1cc(OCc2cccc(NC(=O)c3cc(F)cc(C(F)(F)F)c3)c2)c2cc(-c3cn4nc(OC)sc4n3)oc2c1` [Example 142], with 1.3 nM.
To `COc1cc(OCc2cccc(NC(=O)c3c(C)noc3C)c2)c2cc(-c3cn4nc(OC)sc4n3)oc2c1` [Example 45] belongs 2.8 nM; to `COc1cc(OCc2cccc(NC(=O)c3ccc(C)nc3Cl)c2)c2cc(-c3cn4nc(OC)sc4n3)oc2c1` [Example 64], 1.4 nM; to `COc1cc(OCc2cccc(NC(=O)c3ccccc3C)c2)c2cc(-c3cn4nc(OC)sc4n3)oc2c1` [Example 27], 0.87 nM.
For the compound `COc1cc(OCc2cccc(N(C)C(C)=O)c2)c2cc(-c3cn4nc(OC)sc4n3)oc2c1` [Example 94], the EC50 stood at 3.8 nM.
On to `COc1cc(OCc2cccc(NC(=O)c3cccc(Cl)c3Cl)c2)c2cc(-c3cn4nc(OC)sc4n3)oc2c1` [Example 156], for which the EC50 stood at 1.7 nM.
To `COc1cc(OCc2cccc(NC(=O)c3ccccc3OC)c2)c2cc(-c3cn4nc(OC)sc4n3)oc2c1` [Example 29] belongs 1.1 nM; to `COc1cc(OCc2cccc(NC(=O)c3ccccc3F)c2)c2cc(-c3cn4nc(OC)sc4n3)oc2c1` [Example 26], 0.75 nM.
To `COc1cc(OCc2cccc(N(C)C(=O)c3sc(C)nc3C)c2)c2cc(-c3cn4nc(OC)sc4n3)oc2c1` [Example 93] belongs 4.8 nM.
Take `COc1cc(OCc2cccc(NC(=O)c3ccc(F)cc3C(F)(F)F)c2)c2cc(-c3cn4nc(OC)sc4n3)oc2c1` [Example 141]: the EC50 was 1.9 nM.
To `COc1cc(OCc2ccc3c(c2)N(C(=O)c2csc(-c4ccccc4)n2)CC3)c2cc(-c3cn4nc(OC)sc4n3)oc2c1` [Example 112] belongs 0.55 nM; to `COc1cc(OCc2cccc(NC(=O)c3ccc(OC(F)F)cc3)c2)c2cc(-c3cn4nc(OC)sc4n3)oc2c1` [Example 164], 2 nM.
To `COc1cc(OCc2cccc(NC(=O)c3c(F)cccc3C(F)(F)F)c2)c2cc(-c3cn4nc(OC)sc4n3)oc2c1` [Example 147] belongs 1.6 nM; to `COc1cc(OCc2cccc(NC(=O)c3cnccn3)c2)c2cc(-c3cn4nc(OC)sc4n3)oc2c1` [Example 133], 2.7 nM; to `COc1cc(OCc2cccc(NC(=O)c3cccc4ccccc34)c2)c2cc(-c3cn4nc(OC)sc4n3)oc2c1` [Example 15], 1.7 nM.
To `COc1cc(OCc2cccc(NC(=O)c3ccc(C(F)(F)F)cc3)c2)c2cc(-c3cn4nc(OC)sc4n3)oc2c1` [Example 153] belongs 0.99 nM; to `COc1cc(OCc2cccc3c2CCN3C(=O)c2csc(-c3ccccc3)n2)c2cc(-c3cn4nc(OC)sc4n3)oc2c1` [Example 119], 1700 nM.
Turning to `COc1cc(OCc2cccc(NC(=O)c3cc(OCc4ccccc4)cc(C(F)(F)F)c3)c2)c2cc(-c3cn4nc(OC)sc4n3)oc2c1` [Example 62], the EC50 came out at 57 nM.
Then `COc1cc(OCc2cccc(NC(=O)c3c(C)noc3-c3ccccc3)c2)c2cc(-c3cn4nc(OC)sc4n3)oc2c1` [Example 59], with 3.5 nM; and `COc1cc(OCc2cccc(N(C)C(=O)c3ccc(F)cc3)c2)c2cc(-c3cn4nc(OC)sc4n3)oc2c1` [Example 87], with 5.7 nM.
Then `COc1cc(OCc2cccc(NC(=O)c3cc(F)ccc3C)c2)c2cc(-c3cn4nc(OC)sc4n3)oc2c1` [Example 75], with 1.7 nM; and `COc1cc(OCc2cccc(NC(=O)Cc3ccccc3)c2)c2cc(-c3cn4nc(OC)sc4n3)oc2c1` [Example 135], with 5 nM; and `COc1cc(OCc2ccc3c(c2)N(C(=O)c2csc(C(F)(F)F)n2)CC3)c2cc(-c3cn4nc(OC)sc4n3)oc2c1` [Example 110], with 0.52 nM.
In the case of `COc1cc(OCc2cccc3c2CCN3C(=O)c2ccnnc2)c2cc(-c3cn4nc(OC)sc4n3)oc2c1` [Example 128], the EC50 is more than 3300 nM.
Then `COc1cc(OCc2cccc(NC(=O)c3cc(C)cc(C(F)(F)F)c3)c2)c2cc(-c3cn4nc(OC)sc4n3)oc2c1` [Example 71], with 1.9 nM; and `COc1cc(OCc2cccc(NC(=O)c3cccnc3)c2)c2cc(-c3cn4nc(OC)sc4n3)oc2c1` [Example 148], with 6.8 nM.
Then `COc1cc(OCc2cccc(NC(=O)c3ccccc3)c2)c2cc(-c3cn4nc(OC)sc4n3)oc2c1` [Example 1, N-(3-(((6-methoxy-2-(2-methoxyimidazo[2,1-b][1,3,4]thiadiazol-6-yl)benzofuran-4-yl)oxy)methyl)phenyl)benzamide], with 1.1 nM; and `COc1cc(OCc2cccc(NC(=O)c3cccnc3F)c2)c2cc(-c3cn4nc(OC)sc4n3)oc2c1` [Example 61], with 1.5 nM.

The values above are taken from patent US10214544B2, “Imidazopyridazine and imidazothiadiazole compounds” (Universite de Montreal, priority 2015, dated 2019).
